Each compound was assayed against T1, full length human recombinant glucocorticoid receptor (Homo sapiens, UniProt P04150) (assay: Glucocorticoid Receptor Binding Assay (Glucocorticoid Receptor Competitor Assay far red kit, fluorescence polarization)). Conditions: competition with fluorescent GR ligand Fluormone GS Far Red, 3 hours at 22° C., pH 7.4; Ki calculated from IC50 by Cheng-Prusoff.
T1 construct: It contains some partially purified full length human recombinant glucocorticoid receptor; purchased Panvera/Invitrogen PV4302
T1 sequence (P04150 1-777): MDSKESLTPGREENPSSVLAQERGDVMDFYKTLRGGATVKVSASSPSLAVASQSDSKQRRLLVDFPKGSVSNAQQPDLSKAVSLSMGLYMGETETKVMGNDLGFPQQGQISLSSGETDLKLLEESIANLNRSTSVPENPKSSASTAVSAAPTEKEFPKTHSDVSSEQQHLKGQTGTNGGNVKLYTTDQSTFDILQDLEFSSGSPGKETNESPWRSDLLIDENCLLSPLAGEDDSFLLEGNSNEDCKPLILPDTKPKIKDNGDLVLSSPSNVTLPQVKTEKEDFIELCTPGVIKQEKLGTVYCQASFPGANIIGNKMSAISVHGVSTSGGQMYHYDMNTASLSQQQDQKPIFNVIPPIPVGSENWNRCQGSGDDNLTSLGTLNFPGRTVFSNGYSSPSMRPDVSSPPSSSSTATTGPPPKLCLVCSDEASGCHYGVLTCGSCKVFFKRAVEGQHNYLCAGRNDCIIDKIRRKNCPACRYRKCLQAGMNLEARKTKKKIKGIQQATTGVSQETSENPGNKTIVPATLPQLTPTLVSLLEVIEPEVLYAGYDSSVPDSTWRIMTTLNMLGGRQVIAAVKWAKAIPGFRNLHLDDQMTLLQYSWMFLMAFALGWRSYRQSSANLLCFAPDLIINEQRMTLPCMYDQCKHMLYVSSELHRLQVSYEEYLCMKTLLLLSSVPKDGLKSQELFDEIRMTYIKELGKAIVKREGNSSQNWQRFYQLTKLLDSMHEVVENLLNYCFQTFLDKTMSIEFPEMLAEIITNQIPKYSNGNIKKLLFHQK
How it was run: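 Fluorescence polarization competition with partially purified full-length human recombinant GR, stabilizing peptide and Fluormone GS Far Red tracer in screening buffer pH 7.4; 3 hours at 22° C in the dark, read at 610–660 nm. IC50 from sigmoidal fit; Ki by Cheng-Prusoff.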
`C[C@H](c1ccc(-c2ccnnc2)cc1Cl)[C@@](O)(c1ccc2oc(=O)n(C)c2c1)C(F)(F)F` (stereo in doubt) [Example 195, 5-[2-(2-Chloro-4-pyridazin-4-yl-phenyl)-1-hydroxy-1-trifluoromethyl-propyl]-3-methyl-3H-benzooxazol-2-one] was tested, and the Ki was 0.8 nM. Compound `C[C@H](c1ccc(Oc2ncccn2)cc1Cl)[C@@](O)(c1ccc2oc(=O)n(C)c2c1)C(F)(F)F` (stereo in doubt) [Example 196, 5-{2-[2-Chloro-4-(pyrimidin-2-yloxy)-phenyl]-1-hydroxy-1-trifluoromethyl-propyl}-3-methyl-3H-benzooxazol-2-one] has a Ki of 1.6 nM. Compound `C[C@H](c1cc(O)ccc1Cl)[C@@](O)(c1ccc2oc(=O)n(C)c2c1)C(F)(F)F` (stereo in doubt) [Example 197, 5-[2-(2-Chloro-5-hydroxy-phenyl)-1-hydroxy-1-trifluoromethyl-propyl]-3-methyl-3H-benzooxazol-2-one] has a Ki of 5.8 nM. In the case of `C[C@H](c1ccc(-c2ccc(C(=O)O)c(F)c2)cc1C(F)(F)F)[C@@](O)(c1ccc2oc(=O)n(C)c2c1)C(F)(F)F` (stereo in doubt) [Example 200, 3-Fluoro-4′-[3,3,3-trifluoro-2-hydroxy-1-methyl-2-(3-methyl-2-oxo-2,3-dihydro-benzooxazol-5-yl)-propyl]-3′-trifluoromethyl-biphenyl-4-carboxylic acid], the Ki is reported as 4.5 nM. `C[C@H](c1ccc(Oc2ccc(C(=O)O)cn2)cc1Cl)[C@@](O)(c1ccc2c(c1)N(C)C(=O)CO2)C(F)(F)F` (stereo in doubt) [Example 205, 6-{3-Chloro-4-[3,3,3-trifluoro-2-hydroxy-1-methyl-2-(4-methyl-3-oxo-3,4-dihydro-2H-benzo[1,4]oxazin-6-yl)-propyl]-phenoxy}-nicotinic acid] gave a Ki of 2.5 nM. Compound `C[C@H](c1ccc(OC(C)(C)C(=O)O)cc1Cl)[C@@](O)(c1ccc2c(c1)N(C)C(=O)CO2)C(F)(F)F` (stereo in doubt) [Example 207, 2-{3-Chloro-4-[3,3,3-trifluoro-2-hydroxy-1-methyl-2-(4-methyl-3-oxo-3,4-dihydro-2H-benzo[1,4]oxazin-6-yl)-propyl]-phenoxy}-2-methyl-propionic acid] has a Ki of 370 nM. In the case of `C[C@H](c1ccc(Oc2ccc(C(=O)O)c(Cl)n2)cc1Cl)[C@@](O)(c1ccc2c(c1)N(C)C(=O)CO2)C(F)(F)F` (stereo in doubt) [Example 209, 2-Chloro-6-{3-chloro-4-[3,3,3-trifluoro-2-hydroxy-1-methyl-2-(4-methyl-3-oxo-3,4-dihydro-2H-benzo[1,4]oxazin-6-yl)-propyl]-phenoxy}-nicotinic acid], the Ki is reported as 0.8 nM. Compound `C[C@H](c1ccc(Oc2cc(Cl)c(C(=O)O)cn2)cc1Cl)[C@@](O)(c1ccc2c(c1)N(C)C(=O)CO2)C(F)(F)F` (stereo in doubt) [Example 211, 4-Chloro-6-{3-chloro-4-[3,3,3-trifluoro-2-hydroxy-1-methyl-2-(4-methyl-3-oxo-3,4-dihydro-2H-benzo[1,4]oxazin-6-yl)-propyl]-phenoxy}-nicotinic acid] has a Ki of 1.2 nM. `C[C@H](c1ccc(Oc2ccc(C(=O)O)c(C(F)(F)F)n2)cc1Cl)[C@@](O)(c1ccc2c(c1)N(C)C(=O)CO2)C(F)(F)F` (stereo in doubt) [Example 215, 6-{3-Chloro-4-[3,3,3-trifluoro-2-hydroxy-1-methyl-2-(4-methyl-3-oxo-3,4-dihydro-2H-benzo[1,4]oxazin-6-yl)-propyl]-phenoxy}-2-trifluoromethyl-nicotinic acid] gave a Ki of 1.4 nM. `CCOC(=O)C(C)(C)Oc1ccc([C@@H](C)[C@@](O)(c2ccc3oc(=O)n(C)c3c2)C(F)(F)F)c(Cl)c1` (stereo in doubt) [Example 229, 2-{3-Chloro-4-[3,3,3-trifluoro-2-hydroxy-1-methyl-2-(3-methyl-2-oxo-2,3-dihydro-benzooxazol-5-yl)-propyl]-phenoxy}-2-methyl-propionic acid ethyl ester] was tested, and the Ki was 3.9 nM. `C[C@H](c1ccc(OC(C)(C)C(=O)O)cc1Cl)[C@@](O)(c1ccc2oc(=O)n(C)c2c1)C(F)(F)F` (stereo in doubt) [Example 230, 2-{3-Chloro-4-[3,3,3-trifluoro-2-hydroxy-1-methyl-2-(3-methyl-2-oxo-2,3-dihydro-benzooxazol-5-yl)-propyl]-phenoxy}-2-methyl-propionic acid] was tested, and the Ki was 35.3 nM. In the case of `C[C@H](c1ccc(C(=O)NCC(=O)OC(C)(C)C)cc1Cl)[C@@](O)(c1ccc2oc(=O)n(C)c2c1)C(F)(F)F` (stereo in doubt) [Example 231, {3-Chloro-4-[3,3,3-trifluoro-2-hydroxy-1-methyl-2-(3-methyl-2-oxo-2,3-dihydrobenzooxazol-5-yl)-propyl]-benzoylamino}-acetic acid tert-butyl ester], the Ki is reported as 6.9 nM. `C[C@H](c1ccc(C(=O)NCC(=O)O)cc1Cl)[C@@](O)(c1ccc2oc(=O)n(C)c2c1)C(F)(F)F` (stereo in doubt) [Example 232, {3-Chloro-4-[3,3,3-trifluoro-2-hydroxy-1-methyl-2-(3-methyl-2-oxo-2,3-dihydrobenzooxazol-5-yl)-propyl]-benzoylamino}-acetic acid] was tested, and the Ki was 92.4 nM. Compound `C[C@H](c1ccc(Oc2ccc(C(=O)O)c(F)c2)cc1Cl)[C@@](O)(c1ccc2c(c1)N(C)C(=O)CO2)C(F)(F)F` [Example 57] has a Ki of 1.3 nM. `C[C@H](c1ccc(Oc2cc(C(F)(F)F)c(C(=O)O)cn2)cc1Cl)[C@@](O)(c1ccc2c(c1)N(C)C(=O)CO2)C(F)(F)F` [Example 62] showed a Ki of 2.1 nM. Compound `CC(c1ccc(-c2ccc(C(=O)O)c(F)c2)cc1Cl)C(O)(c1ccc2c(c1)n(C)c(=O)n2C)C(F)(F)F` (centres unmarked) [Example 73, 3′-Chloro-4′-[2-(1,3-dimethyl-2-oxo-2,3-dihydro-1H-benzoimidazol-5-yl)-3,3,3-trifluoro-2-hydroxy-1-methyl-propyl]-3-fluoro-biphenyl-4-carboxylic acid] has a Ki of 7.3 nM. `CC(c1ccc(-c2ccc(OCC(=O)O)cc2)cc1Cl)C(O)(c1ccc2c(c1)n(C)c(=O)n2C)C(F)(F)F` (centres unmarked) [Example 75, {3′-Chloro-4′-[2-(1,3-dimethyl-2-oxo-2,3-dihydro-1H-benzoimidazol-5-yl)-3,3,3-trifluoro-2-hydroxy-1-methyl-propyl]-biphenyl-4-yloxy}-acetic acid] showed a Ki of 1.9 nM. `CC(c1ccc(O)cc1Cl)C(O)(c1ccc2c(c1)n(C)c(=O)n2C)C(F)(F)F` (centres unmarked) [Example 85, 5-[2-(2-Chloro-4-hydroxy-phenyl)-1-hydroxy-1-trifluoromethyl-propyl]-1,3-dimethyl-1,3-dihydro-benzoimidazol-2-one] showed a Ki of 0.8 nM. Work on `CC(c1ccc(Oc2ccc(C(=O)O)cc2F)cc1Cl)C(O)(c1ccc2c(c1)n(C)c(=O)n2C)C(F)(F)F` (centres unmarked) [Example 86, 4-{3-Chloro-4-[2-(1,3-dimethyl-2-oxo-2,3-dihydro-1H-benzoimidazol-5-yl)-3,3,3-trifluoro-2-hydroxy-1-methyl-propyl]-phenoxy}-3-fluoro-benzoic acid] yielded a Ki of 2.7 nM. `CC(c1ccc(Oc2ccc(C(=O)O)cc2Cl)cc1Cl)C(O)(c1ccc2c(c1)n(C)c(=O)n2C)C(F)(F)F` (centres unmarked) [Example 87, 3-Chloro-4-{3-chloro-4-[2-(1,3-dimethyl-2-oxo-2,3-dihydro-1H-benzoimidazol-5-yl)-3,3,3-trifluoro-2-hydroxy-1-methyl-propyl]-phenoxy}-benzoic acid] showed a Ki of 3.7 nM.

— patent US8450313B2, “2,3-diaryl- or heteroaryl-substituted 1,1,1-trifluoro-2-hydroxypropyl compounds” (Hoffmann-La Roche Inc., priority 2009, dated 2013)
